Patent publication US9062124B2, “GIP-based mixed agonists for treatment of metabolic disorders and obesity” (priority 2008, dated 2015)
Where a SMILES comes first, the peptide text is derived from it. Bridges are numbered along the chain shown (N, C = ends). [ ]: non-standard residue; d: D form. The star is where a group is joined. Palmitoyl = CCCCCCCCCCCCCCCC(=O)*; Aib = CC(C)(N)C(=O)O

Key:
Type in all cases: cell-based
GIP receptor = target: T1, GIP receptor (Homo sapiens, UniProt P48546); assay: cAMP synthesis functional assay (firefly luciferase reporter in HEK293 cells), GIP receptor; details: for EC50: GIP Receptor EC50, nM
T1 construct: expressed in transfected cells; host or cells: HEK293
T1 sequence (P48546 22-466): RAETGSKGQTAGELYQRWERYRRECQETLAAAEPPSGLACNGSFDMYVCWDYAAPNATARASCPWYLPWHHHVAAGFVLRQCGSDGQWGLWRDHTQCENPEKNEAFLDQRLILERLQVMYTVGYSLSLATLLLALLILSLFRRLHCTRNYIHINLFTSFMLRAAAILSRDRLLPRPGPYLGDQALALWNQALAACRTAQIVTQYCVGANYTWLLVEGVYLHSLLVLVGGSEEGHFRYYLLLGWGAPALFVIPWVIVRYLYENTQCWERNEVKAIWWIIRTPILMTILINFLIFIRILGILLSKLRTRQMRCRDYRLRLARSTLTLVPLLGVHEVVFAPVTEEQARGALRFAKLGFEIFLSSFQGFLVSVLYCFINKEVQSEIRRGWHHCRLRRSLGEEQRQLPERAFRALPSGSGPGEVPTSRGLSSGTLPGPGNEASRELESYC

GLP-1 receptor = target: T2, GLP-1 receptor (Homo sapiens, UniProt P43220); assay: cAMP synthesis functional assay (firefly luciferase reporter in HEK293 cells), GLP-1 receptor
T2 construct: expressed in transfected cells; host or cells: HEK293
T2 sequence (P43220 24-463, species assumed): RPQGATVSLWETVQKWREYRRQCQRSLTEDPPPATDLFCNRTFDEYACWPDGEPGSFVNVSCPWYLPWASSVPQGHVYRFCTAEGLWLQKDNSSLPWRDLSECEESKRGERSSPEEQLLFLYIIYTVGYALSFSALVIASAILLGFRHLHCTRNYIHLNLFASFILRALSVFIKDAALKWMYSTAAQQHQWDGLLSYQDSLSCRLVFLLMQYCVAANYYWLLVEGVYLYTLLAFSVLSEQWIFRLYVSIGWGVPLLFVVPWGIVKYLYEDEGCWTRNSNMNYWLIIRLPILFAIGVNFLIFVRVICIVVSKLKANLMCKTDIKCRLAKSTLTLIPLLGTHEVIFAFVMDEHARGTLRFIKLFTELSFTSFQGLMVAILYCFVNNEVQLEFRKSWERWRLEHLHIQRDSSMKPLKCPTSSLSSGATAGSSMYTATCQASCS

glucagon receptor = target: T3, glucagon receptor (Homo sapiens, UniProt P47871); assay: cAMP synthesis functional assay (firefly luciferase reporter in HEK293 cells), glucagon receptor
T3 construct: expressed in transfected cells; host or cells: HEK293
T3 sequence (P47871 26-477): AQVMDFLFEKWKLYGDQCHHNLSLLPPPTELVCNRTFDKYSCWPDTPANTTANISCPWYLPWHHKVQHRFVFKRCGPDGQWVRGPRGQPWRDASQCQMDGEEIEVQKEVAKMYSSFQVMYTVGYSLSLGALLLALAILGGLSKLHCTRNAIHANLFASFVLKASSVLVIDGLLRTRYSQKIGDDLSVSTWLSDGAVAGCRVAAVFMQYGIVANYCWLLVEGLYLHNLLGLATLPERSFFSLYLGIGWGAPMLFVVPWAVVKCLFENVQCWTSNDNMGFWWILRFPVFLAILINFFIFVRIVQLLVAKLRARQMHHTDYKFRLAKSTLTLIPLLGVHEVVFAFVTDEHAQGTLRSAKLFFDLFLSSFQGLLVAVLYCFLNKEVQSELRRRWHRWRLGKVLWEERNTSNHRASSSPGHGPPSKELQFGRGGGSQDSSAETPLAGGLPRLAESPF

[1] = Table 4, relative to the native hormone
[2] = Table 1, relative to the native hormone of the indicated receptor
[3] = relative to the standard (Std.) EC50 of the same run

CCCCCCCCCCCCCCCC(=O)NCCCC[C@H](NC(=O)[C@H](CO)NC(=O)[C@@H]1CCCN1C(=O)[C@@H]1CCCN1C(=O)[C@@H]1CCCN1C(=O)[C@H](C)NC(=O)CNC(=O)[C@H](CO)NC(=O)[C@H](CO)NC(=O)[C@@H]1CCCN1C(=O)CNC(=O)CNC(=O)[C@H](C)NC(=O)[C@H](CC(C)C)NC(=O)[C@H](CC(C)C)NC(=O)[C@H](Cc1c[nH]c2ccccc12)NC(=O)[C@H](CC(N)=O)NC(=O)[C@@H](NC(=O)[C@H](Cc1ccccc1)NC(=O)[C@H](CCC(=O)O)NC(=O)C(C)(C)NC(=O)[C@H](C)NC(=O)[C@H](C)NC(=O)[C@H](CCC(N)=O)NC(=O)[C@H](CCCCN)NC(=O)[C@H](CC(=O)O)NC(=O)[C@H](CC(C)C)NC(=O)[C@H](Cc1ccc(O)cc1)NC(=O)[C@@H](NC(=O)[C@H](CO)NC(=O)[C@H](Cc1ccc(O)cc1)NC(=O)[C@H](CC(=O)O)NC(=O)[C@H](CO)NC(=O)[C@@H](NC(=O)[C@H](Cc1ccccc1)NC(=O)[C@@H](NC(=O)CNC(=O)[C@H](CCC(N)=O)NC(=O)C(C)(C)NC(=O)[C@@H](N)Cc1ccc(O)cc1)[C@@H](C)O)[C@@H](C)CC)[C@@H](C)CC)C(C)C)C(N)=O [mt-358] (H-Y[Aib]QGTFISDYSIYLDKQAA[Aib]EFVNWLLAGGPSSGAPPPSK(Palmitoyl)-NH2; N-terminus assumed)
EC50 (GIP receptor; Table 4): 0.0045 nM
GIP Receptor relative activity (GIP receptor; [1]): 305.62%
GLP-1 Receptor relative activity (GLP-1 receptor; [1]): 13.04%
Glucagon Receptor relative activity (glucagon receptor; [1]): 1266.00%

CC[C@H](C)[C@H](NC(=O)[C@H](CO)NC(=O)[C@H](Cc1ccc(O)cc1)NC(=O)[C@H](CC(=O)O)NC(=O)[C@H](CO)NC(=O)[C@@H](NC(=O)[C@H](Cc1ccccc1)NC(=O)[C@@H](NC(=O)CNC(=O)[C@H](CCC(N)=O)NC(=O)C(C)(C)NC(=O)[C@@H](N)Cc1ccc(O)cc1)[C@@H](C)O)C(C)C)C(=O)N[C@@H](Cc1ccc(O)cc1)C(=O)N[C@@H](CC(C)C)C(=O)N[C@@H](CC(=O)O)C(=O)N[C@H]1CCC(=O)NCCCC[C@@H](C(=O)N[C@@H](CCC(=O)O)C(=O)N[C@@H](Cc2ccccc2)C(=O)N[C@H](C(=O)N[C@@H](CC(N)=O)C(=O)N[C@@H](Cc2c[nH]c3ccccc23)C(=O)N[C@@H](CC(C)C)C(=O)N[C@@H](CC(C)C)C(=O)N[C@@H](C)C(=O)NCC(=O)NCC(=O)N2CCC[C@H]2C(=O)N[C@@H](CO)C(=O)N[C@@H](CO)C(=O)NCC(=O)N[C@@H](C)C(=O)N2CCC[C@H]2C(=O)N2CCC[C@H]2C(=O)N2CCC[C@H]2C(=O)N[C@@H](CO)C(=O)N[C@@H](CS)C(N)=O)C(C)C)NC(=O)[C@H](C)NC(=O)[C@H](C)NC(=O)[C@H](CCC(N)=O)NC1=O [mt-199] (H-Y[Aib]QGTFVSDYSIYLDEQAAKEFVNWLLAGGPSSGAPPPSC-NH2; lactam 16-20; N-terminus assumed)
EC50 (GIP receptor; Table 1): 0.526 nM
GIP Receptor relative activity (GIP receptor; [2]): 5.51%
EC50 (GLP-1 receptor; GLP-1 Receptor EC50, nM, Table 1): 2.8 nM
GLP-1 Receptor relative activity (GLP-1 receptor; [2]): 1.04%
EC50 (glucagon receptor; Glucagon Receptor EC50, nM, Table 1): 0.214 nM
Glucagon Receptor relative activity (glucagon receptor; [2]): 31.31%

CCCCCCCCCCCCCC(=O)NCCCC[C@H](NC(=O)[C@H](CO)NC(=O)[C@@H]1CCCN1C(=O)[C@@H]1CCCN1C(=O)[C@@H]1CCCN1C(=O)[C@H](C)NC(=O)CNC(=O)[C@H](CO)NC(=O)[C@H](CO)NC(=O)[C@@H]1CCCN1C(=O)CNC(=O)CNC(=O)[C@H](C)NC(=O)[C@H](CC(C)C)NC(=O)[C@H](CC(C)C)NC(=O)[C@H](Cc1c[nH]c2ccccc12)NC(=O)[C@H](CC(N)=O)NC(=O)[C@@H](NC(=O)[C@H](Cc1ccccc1)NC(=O)[C@H](CCC(=O)O)NC(=O)C(C)(C)NC(=O)[C@H](C)NC(=O)[C@H](C)NC(=O)[C@H](CCC(N)=O)NC(=O)[C@H](CCCCN)NC(=O)[C@H](CC(=O)O)NC(=O)[C@H](CC(C)C)NC(=O)[C@H](Cc1ccc(O)cc1)NC(=O)[C@@H](NC(=O)[C@H](CO)NC(=O)[C@H](Cc1ccc(O)cc1)NC(=O)[C@H](CC(=O)O)NC(=O)[C@H](CO)NC(=O)[C@@H](NC(=O)[C@H](Cc1ccccc1)NC(=O)[C@@H](NC(=O)CNC(=O)[C@H](CCC(=O)O)NC(=O)C(C)(C)NC(=O)[C@@H](N)Cc1ccc(O)cc1)[C@@H](C)O)[C@@H](C)O)[C@@H](C)CC)C(C)C)C(=O)N[C@@H](CS)C(N)=O [mt-339]
GIP Receptor relative activity (GIP receptor; [3]): 230.00%
GLP-1 Receptor relative activity (GLP-1 receptor; [3]): 66.30%
Glucagon Receptor relative activity (glucagon receptor; [3]): 0.28%

CC(C)C[C@H](NC(=O)[C@H](CC(C)C)NC(=O)[C@H](Cc1c[nH]c2ccccc12)NC(=O)[C@H](CC(N)=O)NC(=O)[C@@H](NC(=O)[C@H](Cc1ccccc1)NC(=O)[C@H](CCC(=O)O)NC(=O)[C@@H]1CCCCNC(=O)CC[C@H](NC(=O)[C@H](CC(=O)O)NC(=O)[C@H](CC(C)C)NC(=O)[C@H](Cc2ccc(O)cc2)NC(=O)[C@@H]2CCCCNC(=O)CC[C@H](NC(=O)[C@H](CO)NC(=O)[C@@H](NC(=O)[C@H](Cc3ccccc3)NC(=O)[C@@H](NC(=O)CNC(=O)[C@H](CCC(N)=O)NC(=O)C(C)(C)NC(=O)[C@@H](N)Cc3ccc(O)cc3)[C@@H](C)O)[C@@H](C)O)C(=O)N[C@@H](Cc3ccc(O)cc3)C(=O)N[C@@H](CO)C(=O)N2)C(=O)N[C@@H](CCC(N)=O)C(=O)N[C@@H](C)C(=O)N[C@@H](C)C(=O)N1)C(C)C)C(=O)N[C@@H](C)C(=O)NCC(=O)NCC(=O)N1CCC[C@H]1C(=O)N[C@@H](CO)C(=O)N[C@@H](CO)C(=O)NCC(=O)N[C@@H](C)C(=O)N1CCC[C@H]1C(=O)N1CCC[C@H]1C(=O)N1CCC[C@H]1C(=O)N[C@@H](CO)C(=O)N[C@@H](CS)C(N)=O [mt-209] (H-Y[Aib]QGTFTSEYSKYLDEQAAKEFVNWLLAGGPSSGAPPPSC-NH2; lactam 9-12, 16-20; N-terminus assumed)
GIP Receptor relative activity (GIP receptor; [2]): 1.42%
GLP-1 Receptor relative activity (GLP-1 receptor; [2]): 1.33%
Glucagon Receptor relative activity (glucagon receptor; [2]): 0.90%

CC[C@H](C)[C@@H]1NC(=O)[C@@H](NC(=O)[C@H](CC(=O)O)NC(=O)[C@H](CC(C)C)NC(=O)[C@H](Cc2ccc(O)cc2)NC(=O)[C@H](CCCCN)NC(=O)[C@H](CO)NC(=O)[C@H](Cc2ccc(O)cc2)NC(=O)[C@H](CC(=O)O)NC(=O)[C@H](CO)NC(=O)[C@@H](NC(=O)[C@H](Cc2ccccc2)NC(=O)[C@@H](NC(=O)CNC(=O)[C@H](CCC(N)=O)NC(=O)[C@H](CO)NC(=O)[C@@H](N)Cc2ccc(O)cc2)[C@@H](C)O)[C@@H](C)O)CCC(=O)NCCCC[C@@H](C(=O)N[C@@H](CCC(=O)O)C(=O)N[C@@H](Cc2ccccc2)C(=O)N[C@H](C(=O)N[C@@H](CC(N)=O)C(=O)N[C@@H](Cc2c[nH]c3ccccc23)C(=O)N[C@@H](CC(C)C)C(=O)N[C@@H](CC(C)C)C(=O)N[C@@H](C)C(=O)N[C@@H](CCC(N)=O)C(N)=O)C(C)C)NC(=O)[C@H](CCC(N)=O)NC(=O)[C@H](Cc2c[nH]cn2)NC1=O [mt-118] (H-YSQGTFTSDYSKYLDEIHQKEFVNWLLAQ-NH2; lactam 16-20; N-terminus assumed)
GIP Receptor relative activity (GIP receptor; [2]): 6.39%
GLP-1 Receptor relative activity (GLP-1 receptor; [2]): 2.34%
Glucagon Receptor relative activity (glucagon receptor; [2]): 125.00%
